From ChEMBL document CHEMBL4837239, “Identification of Thieno[3,2-d]pyrimidine Derivatives as Dual Inhibitors of Focal Adhesion Kinase and FMS-like Tyrosine Kinase 3” (J Med Chem, 2021)
pIC50: −log10 of the molar value. The source made the active and inactive calls. The rule behind the calls is not given here.

Columns and labels:
[1] = Metabolic stability in human liver microsomes assessed as compound remaining at 1 uM measured after 1 hr; format: ADME, Microsome; conditions: read-out: Stabilty
[2] = Inhibition of FYK Y379 mutant phosphorylation in human MDA-MB-231 cells by in-cell western blot assay; format: cell-based
[3] = target: CYP2D6 (Homo sapiens, UniProt P10635); assay: Inhibition of CYP2D6 (unknown origin) at 10 uM relative to control; format: ADME
[4] = target: CYP3A4 (Homo sapiens, UniProt P08684); assay: Inhibition of CYP3A4 (unknown origin) at 10 uM relative to control; format: ADME
[5] = Inhibition of FLT3 D835Y (unknown origin); parameters: species or system Homo sapiens
[6] = target: Non-receptor tyrosine-protein kinase TYK2 (Homo sapiens, UniProt P29597); assay: Inhibition of TYK2 (unknown origin)
[7] = target: T1, Casein kinase II subunit alpha (Homo sapiens, UniProt P68400); assay: Inhibition of CK2alpha1 (unknown origin)
Target sequence in this assay (P68400 whole entry): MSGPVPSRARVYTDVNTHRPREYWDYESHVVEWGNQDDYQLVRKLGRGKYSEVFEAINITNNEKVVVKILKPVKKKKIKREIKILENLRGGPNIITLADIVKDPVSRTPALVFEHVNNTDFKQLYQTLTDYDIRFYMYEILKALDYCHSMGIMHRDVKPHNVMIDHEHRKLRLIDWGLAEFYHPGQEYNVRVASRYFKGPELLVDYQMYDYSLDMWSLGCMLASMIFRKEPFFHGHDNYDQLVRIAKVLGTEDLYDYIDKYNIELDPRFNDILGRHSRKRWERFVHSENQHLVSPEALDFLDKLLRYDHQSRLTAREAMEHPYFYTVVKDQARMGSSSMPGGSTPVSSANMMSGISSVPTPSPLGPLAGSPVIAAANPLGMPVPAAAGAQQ

[8] = target: T2, Tyrosine-protein kinase Fes/Fps (Homo sapiens, UniProt P07332); assay: Inhibition of Fes (unknown origin)
[9] = target: Tyrosine-protein kinase Lck (Homo sapiens, UniProt P06239); assay: Inhibition of Lck (unknown origin)
[10] = target: Proto-oncogene tyrosine-protein kinase ROS (Homo sapiens, UniProt P08922); assay: Inhibition of ROS (unknown origin)
[11] = target: Tyrosine-protein kinase Fyn (Homo sapiens, UniProt P06241); assay: Inhibition of Fyn (unknown origin)
[12] = target: Epithelial discoidin domain-containing receptor 1 (Homo sapiens, UniProt Q08345); assay: Inhibition of DDR1 (unknown origin) at 0.1 uM
[13] = target: Tyrosine-protein kinase JAK3 (Homo sapiens) (UniProt P52333); assay: Inhibition of JAK3 (unknown origin) at 0.1 uM
[14] = target: T3, Focal adhesion kinase 1 (Homo sapiens, UniProt Q05397); assay: Inhibition of FAK (unknown origin) at 0.1 uM
[15] = target: T1, Casein kinase II subunit alpha; assay: Inhibition of CK2alpha1 (unknown origin) at 0.1 uM
Target sequence in this assay (P68400 whole entry, looked up): as the sequence (P68400 whole entry) above

[16] = target: T2, Tyrosine-protein kinase Fes/Fps; assay: Inhibition of Fes (unknown origin) at 0.1 uM
[17] = test system: Colon carcinoma cell; assay: Antiproliferative activity against human colon cancer cells assessed as growth inhibition measured after 72 hrs by MTT assay; format: functional, cell-based
[18] = test system: Prostatic carcinoma cell; assay: Antiproliferative activity against human prostate cancer cells assessed as growth inhibition measured after 72 hrs by MTT assay; format: functional, cell-based
[19] = test system: BaF3; assay: Antiproliferative activity against mouse Ba/F3 cells harbouring FLT3 D835Y mutant assessed as growth inhibition measured after 72 hrs by CellTiter-Glo assay; format: functional; conditions: Mus musculus, BaF3
[20] = test system: BaF3; assay: Antiproliferative activity against mouse Ba/F3 cells assessed as growth inhibition measured after 72 hrs by CellTiter-Glo assay; format: functional; conditions: Mus musculus, BaF3
[21] = target: T3, Focal adhesion kinase 1; assay: Inhibition of FAK in human HCT-116 cells assessed as inhibition of paxillin phosphorylation at 0.5 to 5 uM incubated for 24 hrs by Western blot analysis; format: cell-based; conditions: dose 0.5-5 µM
[22] = test system: MDA-MB-231; assay: Induction of apoptosis in human MDA-MB-231 cells assessed as cleaved PARP at 0.1 to 10 uM incubated for 24 hrs by Western blot analysis; format: functional, cell-based; conditions: dose 0.1-10 µM
[23] = test system: MDA-MB-231; assay: Growth inhibition of anchorage-Independent human MDA-MB-231 cells assessed as decrease in number of colonies at 10 uM incubated for 72 hrs by MTT assay relative to control; format: functional
[24] = test system: MDA-MB-231; assay: In vivo antitumor activity against human MDA-MB-231 cells xenografted in Balb/c mouse assessed as tumor volume at 40 mg/kg, po once daily measured for 16 days (reference value: 600 mm^3); format: functional; conditions: time 16 day
[25] = test system: MDA-MB-231; assay: Antiinvasive activity in human MDA-MB-231 cells assessed as suppression of invasion measured after 12 hrs by trans well experiment; format: functional; conditions: dose 0.5-1 µM, at 0.5 to 1 µM
[26] = test system: MDA-MB-231; assay: Disruption of focal adhesion of human MDA-MB-231 cells assessed as decrease in F-actin measured after 3 hrs by Alexa Fluor 488-conjugated Ab based fluorescence analysis; format: functional; parameters: scale not given: the % may be the effect or the level left; conditions: dose 1-10 µM, at 1 to 10 µM
[27] = test system: MDA-MB-231; assay: Antimetastatic activity against human MDA-MB-231 cells expressing firefly luciferase xenografted NSG orthotopic mouse model assessed as reduction in luminescence intensity at chest region at 70 mg/kg, po once daily measured for 2 weeks; format: functional, organism-based
[28] = Toxicity in NSG orthotopic mouse xenografted with human MDA-MB-231 cells assessed as change in body weight at 40 to 70 mg/kg, po once daily measured for 2 weeks; format: organism-based; conditions: in vivo, 336 h, dose 40-70 mg/kg
[29] = test system: T4, Receptor-type tyrosine-protein kinase FLT3 (Homo sapiens), P36888 [D835Y]; assay: Inhibition of FLT3-D835Y mutant (unknown origin) expressed in mouse Ba/F3 cells assessed as decrease in STAT5 phosphorylation at 10 nM by Western blot analysis; format: cell-based; conditions: BaF3
T4 sequence (whole entry): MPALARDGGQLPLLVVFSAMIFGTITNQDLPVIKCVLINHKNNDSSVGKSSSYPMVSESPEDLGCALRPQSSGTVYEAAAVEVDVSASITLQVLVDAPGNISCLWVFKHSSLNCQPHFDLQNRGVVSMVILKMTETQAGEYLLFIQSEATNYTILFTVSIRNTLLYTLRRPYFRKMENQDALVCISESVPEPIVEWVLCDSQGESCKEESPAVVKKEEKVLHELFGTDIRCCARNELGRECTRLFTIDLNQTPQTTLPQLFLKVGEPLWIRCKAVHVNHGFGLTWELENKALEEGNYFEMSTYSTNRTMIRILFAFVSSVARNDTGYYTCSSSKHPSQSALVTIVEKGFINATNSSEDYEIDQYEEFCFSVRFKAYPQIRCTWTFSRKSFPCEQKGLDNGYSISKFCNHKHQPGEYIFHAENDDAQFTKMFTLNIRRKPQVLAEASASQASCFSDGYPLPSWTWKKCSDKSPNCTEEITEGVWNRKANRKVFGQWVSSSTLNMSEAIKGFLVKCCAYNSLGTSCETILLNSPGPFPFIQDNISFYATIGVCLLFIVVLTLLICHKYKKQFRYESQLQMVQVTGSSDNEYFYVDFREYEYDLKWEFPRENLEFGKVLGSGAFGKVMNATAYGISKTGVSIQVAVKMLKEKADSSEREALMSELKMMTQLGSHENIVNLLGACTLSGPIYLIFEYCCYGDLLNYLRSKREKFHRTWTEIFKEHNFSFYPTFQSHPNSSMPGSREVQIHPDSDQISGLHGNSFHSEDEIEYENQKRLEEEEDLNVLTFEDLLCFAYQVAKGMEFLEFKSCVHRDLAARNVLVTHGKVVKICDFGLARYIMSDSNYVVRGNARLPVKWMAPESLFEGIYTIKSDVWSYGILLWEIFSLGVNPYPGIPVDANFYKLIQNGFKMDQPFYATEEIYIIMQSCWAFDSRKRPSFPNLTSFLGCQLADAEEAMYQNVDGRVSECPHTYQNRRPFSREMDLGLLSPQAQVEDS

[30] = test system: MV4-11; assay: In vivo antitumor activity against human MV4-11 cells xenografted in mouse assessed as tumor weight at 50 mg/kg, po relative to control; format: functional, organism-based

T2 sequence (P07332 whole entry): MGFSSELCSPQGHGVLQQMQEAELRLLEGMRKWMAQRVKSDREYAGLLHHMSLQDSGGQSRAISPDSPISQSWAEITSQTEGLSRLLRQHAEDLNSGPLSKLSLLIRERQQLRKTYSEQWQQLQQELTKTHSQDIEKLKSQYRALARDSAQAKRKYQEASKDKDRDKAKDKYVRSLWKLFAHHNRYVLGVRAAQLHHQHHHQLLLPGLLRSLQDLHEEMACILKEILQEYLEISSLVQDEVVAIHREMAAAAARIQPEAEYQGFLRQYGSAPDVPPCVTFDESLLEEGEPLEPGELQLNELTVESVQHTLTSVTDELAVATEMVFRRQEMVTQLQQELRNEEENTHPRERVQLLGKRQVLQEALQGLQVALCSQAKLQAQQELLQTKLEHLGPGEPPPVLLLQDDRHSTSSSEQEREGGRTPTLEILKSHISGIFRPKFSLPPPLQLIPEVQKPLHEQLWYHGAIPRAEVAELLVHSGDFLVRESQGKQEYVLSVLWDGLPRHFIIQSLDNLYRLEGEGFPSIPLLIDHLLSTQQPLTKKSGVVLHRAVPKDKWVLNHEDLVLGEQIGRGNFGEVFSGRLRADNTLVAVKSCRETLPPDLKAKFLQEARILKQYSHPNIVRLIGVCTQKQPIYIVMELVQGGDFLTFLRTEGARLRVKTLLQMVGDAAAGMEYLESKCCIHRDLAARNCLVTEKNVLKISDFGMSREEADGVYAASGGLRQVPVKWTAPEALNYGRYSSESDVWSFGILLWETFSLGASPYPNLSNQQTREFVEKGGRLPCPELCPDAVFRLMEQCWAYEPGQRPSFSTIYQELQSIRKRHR
T3 sequence (Q05397 2-1052 limits assumed): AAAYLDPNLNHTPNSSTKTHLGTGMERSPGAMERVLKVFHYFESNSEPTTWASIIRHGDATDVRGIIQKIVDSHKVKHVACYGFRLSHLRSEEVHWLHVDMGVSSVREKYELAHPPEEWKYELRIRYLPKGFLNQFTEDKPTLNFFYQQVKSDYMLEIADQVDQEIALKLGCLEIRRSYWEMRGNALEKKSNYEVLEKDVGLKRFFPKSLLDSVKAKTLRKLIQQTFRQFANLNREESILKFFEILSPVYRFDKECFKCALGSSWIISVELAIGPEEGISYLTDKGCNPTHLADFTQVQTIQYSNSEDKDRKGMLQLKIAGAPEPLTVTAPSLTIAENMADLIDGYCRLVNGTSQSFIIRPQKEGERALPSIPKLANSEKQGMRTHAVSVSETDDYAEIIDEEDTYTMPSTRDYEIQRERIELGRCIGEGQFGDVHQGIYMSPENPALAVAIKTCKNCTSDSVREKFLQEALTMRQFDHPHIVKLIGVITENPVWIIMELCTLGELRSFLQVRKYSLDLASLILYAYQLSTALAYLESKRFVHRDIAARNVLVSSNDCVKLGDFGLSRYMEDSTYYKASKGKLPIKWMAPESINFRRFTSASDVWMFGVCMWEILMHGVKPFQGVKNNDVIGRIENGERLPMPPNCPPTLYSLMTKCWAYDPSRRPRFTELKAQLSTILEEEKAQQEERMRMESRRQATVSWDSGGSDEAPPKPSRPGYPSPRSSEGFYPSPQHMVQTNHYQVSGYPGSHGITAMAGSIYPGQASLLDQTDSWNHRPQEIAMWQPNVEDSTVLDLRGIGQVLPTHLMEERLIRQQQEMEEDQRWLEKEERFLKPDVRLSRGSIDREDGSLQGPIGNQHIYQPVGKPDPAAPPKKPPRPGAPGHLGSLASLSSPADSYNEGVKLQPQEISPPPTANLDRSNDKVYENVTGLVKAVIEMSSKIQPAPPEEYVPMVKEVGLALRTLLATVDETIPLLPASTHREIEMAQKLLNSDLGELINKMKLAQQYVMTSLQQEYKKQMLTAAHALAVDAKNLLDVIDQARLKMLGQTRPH
Sequence of Epithelial discoidin domain-containing receptor 1 (Q08345 whole entry, the tested form may be a part): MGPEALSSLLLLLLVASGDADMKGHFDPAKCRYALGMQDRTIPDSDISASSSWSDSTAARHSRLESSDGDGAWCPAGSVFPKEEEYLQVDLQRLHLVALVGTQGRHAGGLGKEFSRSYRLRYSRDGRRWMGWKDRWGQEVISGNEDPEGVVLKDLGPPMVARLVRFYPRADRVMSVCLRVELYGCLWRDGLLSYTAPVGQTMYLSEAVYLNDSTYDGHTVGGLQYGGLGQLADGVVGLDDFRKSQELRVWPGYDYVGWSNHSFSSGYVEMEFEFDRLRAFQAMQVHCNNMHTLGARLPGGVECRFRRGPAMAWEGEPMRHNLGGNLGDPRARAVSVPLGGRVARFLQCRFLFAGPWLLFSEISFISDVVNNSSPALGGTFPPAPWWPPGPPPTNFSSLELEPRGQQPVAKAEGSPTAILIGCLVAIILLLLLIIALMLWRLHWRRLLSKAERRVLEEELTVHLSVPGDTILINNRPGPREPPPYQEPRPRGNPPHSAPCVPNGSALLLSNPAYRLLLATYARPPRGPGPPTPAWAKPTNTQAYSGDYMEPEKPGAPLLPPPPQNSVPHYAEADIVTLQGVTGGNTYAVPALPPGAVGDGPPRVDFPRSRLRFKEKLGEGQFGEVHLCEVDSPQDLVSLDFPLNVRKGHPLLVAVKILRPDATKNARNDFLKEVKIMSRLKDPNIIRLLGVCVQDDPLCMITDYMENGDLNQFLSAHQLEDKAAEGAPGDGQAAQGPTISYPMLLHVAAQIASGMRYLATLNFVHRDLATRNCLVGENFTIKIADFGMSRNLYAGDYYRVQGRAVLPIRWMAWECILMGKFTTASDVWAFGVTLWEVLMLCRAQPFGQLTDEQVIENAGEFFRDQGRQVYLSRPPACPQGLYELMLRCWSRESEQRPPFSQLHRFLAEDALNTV
Sequence of Tyrosine-protein kinase JAK3 (Homo sapiens) (P52333 whole entry): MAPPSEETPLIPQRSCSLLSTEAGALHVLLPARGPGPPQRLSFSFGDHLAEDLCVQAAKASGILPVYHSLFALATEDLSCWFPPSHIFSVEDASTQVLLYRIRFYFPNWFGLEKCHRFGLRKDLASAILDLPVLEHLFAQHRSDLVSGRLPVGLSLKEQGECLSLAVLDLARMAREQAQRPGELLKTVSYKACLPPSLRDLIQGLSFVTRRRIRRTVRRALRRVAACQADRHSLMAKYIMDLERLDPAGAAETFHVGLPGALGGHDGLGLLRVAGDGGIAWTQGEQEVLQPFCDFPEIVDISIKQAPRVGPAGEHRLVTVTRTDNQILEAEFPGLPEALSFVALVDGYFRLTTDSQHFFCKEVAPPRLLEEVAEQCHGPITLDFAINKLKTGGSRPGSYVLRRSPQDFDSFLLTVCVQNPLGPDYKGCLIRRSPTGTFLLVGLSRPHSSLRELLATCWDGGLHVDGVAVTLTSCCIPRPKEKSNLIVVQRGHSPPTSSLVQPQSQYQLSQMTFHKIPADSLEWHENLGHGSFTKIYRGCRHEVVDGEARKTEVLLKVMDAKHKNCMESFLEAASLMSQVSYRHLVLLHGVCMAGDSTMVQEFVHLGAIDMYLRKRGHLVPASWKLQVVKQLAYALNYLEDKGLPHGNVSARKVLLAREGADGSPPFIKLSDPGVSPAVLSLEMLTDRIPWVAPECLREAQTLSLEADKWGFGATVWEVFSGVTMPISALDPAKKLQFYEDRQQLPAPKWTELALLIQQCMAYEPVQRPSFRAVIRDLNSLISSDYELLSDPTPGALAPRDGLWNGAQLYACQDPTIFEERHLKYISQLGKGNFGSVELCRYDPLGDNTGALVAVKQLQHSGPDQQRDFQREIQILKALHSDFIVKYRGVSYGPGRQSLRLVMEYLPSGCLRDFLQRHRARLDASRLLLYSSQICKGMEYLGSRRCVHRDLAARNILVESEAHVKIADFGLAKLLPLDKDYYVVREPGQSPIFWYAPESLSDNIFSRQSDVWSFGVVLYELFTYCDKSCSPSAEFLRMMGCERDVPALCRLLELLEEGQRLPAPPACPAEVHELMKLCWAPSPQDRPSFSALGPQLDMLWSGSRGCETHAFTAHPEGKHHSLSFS
Sequence of CYP2D6 (P10635 whole entry): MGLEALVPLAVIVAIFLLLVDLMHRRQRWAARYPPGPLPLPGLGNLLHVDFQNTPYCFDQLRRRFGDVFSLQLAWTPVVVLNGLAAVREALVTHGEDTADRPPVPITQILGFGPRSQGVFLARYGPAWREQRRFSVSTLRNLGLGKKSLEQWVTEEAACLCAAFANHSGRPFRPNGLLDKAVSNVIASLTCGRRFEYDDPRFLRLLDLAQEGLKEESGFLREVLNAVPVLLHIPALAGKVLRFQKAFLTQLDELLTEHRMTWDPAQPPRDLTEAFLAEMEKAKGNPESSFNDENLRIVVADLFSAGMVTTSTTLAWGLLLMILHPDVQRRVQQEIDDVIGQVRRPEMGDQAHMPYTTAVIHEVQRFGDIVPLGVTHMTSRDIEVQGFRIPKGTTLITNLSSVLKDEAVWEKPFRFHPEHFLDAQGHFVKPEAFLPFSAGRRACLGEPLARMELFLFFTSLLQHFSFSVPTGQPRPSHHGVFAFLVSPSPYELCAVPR

remaining at 1 h, 1 µM [1]: 80.2%
pIC50 [2]: 6.59
inhibition at 10 µM [3]: 100%
inhibition at 10 µM [4]: 71.9%
pIC50 [5]: > 9.30
pIC50 [6]: 8.37
pIC50 [7]: 7.86
pIC50 [8]: 8.31
pIC50 [9]: 8.11
pIC50 [10]: 7.66
pIC50 [11]: 8.11
inhibition [12]: 97%
inhibition [13]: 96.7%
inhibition [14]: 95.6%
inhibition [15]: 95.5%
inhibition [16]: 95%
GI50 [19]: 0.4 nM
GI50 [20]: 428 nM
inhibition [21]: Active
inhibition [29]: 100%
SMILES: CCN1CCN(c2ccc(Nc3ncc4scc(-c5cccc(NS(C)(=O)=O)c5)c4n3)cc2)CC1
Activity [17]: Active
Activity [18]: Active
Activity [22]: Active
inhibition at 10 µM [23]: 75%
Activity [24]: 400 mm3
inhibition (INH) [25]: 50%
Activity [26]: 50%
Activity [27]: Active
Activity [28]: Non-Toxic
Activity [30]: Active
